{
  "source": "patent US20100034739A1",
  "about": "“Fungus-Specific Imaging Agents” (priority 2006, published 2010)",
  "key": {"hyphae of Aspergillus": {"system": "hyphae of Aspergillus", "settings": "Lionakis et al. 2005; cited from earlier work"}, "hyphae of Rhizopus": {"system": "hyphae of Rhizopus", "settings": "Lionakis et al. 2005; cited from earlier work"}, "Aspergillus": {"system": "Aspergillus", "experiment": "autoradiography and GMS histology of excised lung slices", "assay_type": "in vivo, mice", "experimental": "FIG. 5B illustrates autoradiography of the lungs of mice injected with the ^68Ga-labeled peptide of FIG. 4.\nFIG. 6 illustrates histology and autoradiography of excised lung tissue from a mouse injected with Ga-68-labeled peptide of FIG. 4. The mouse had acute pulmonary aspergillosis.\nLungs were removed from the mice after the 90 minute imaging session and snap frozen, then cut into 20 μm slices. These slices were air-dried and exposed to a phosphors screen. The screen was exposed for 10 minutes.\nTo confirm that tissue labeled with the imaging agent was actually infected with Aspergillus, histology of lung tissue labeled by the imaging agent in an infected mouse was performed. The corresponding gamma scintogram and histology data are show in FIG. 6. […] Note the black-stained organisms correlated with distribution of radioactivity in autoradiography (lower left image) of excised lung tissue from a mouse injected with Ga-68-labeled peptide of FIG. 4."}, "[1]": {"system": "acute pulmonary aspergillosis", "experiment": "μ-PET imaging of mice with acute pulmonary aspergillosis and normal mice", "assay_type": "in vivo", "settings": "μ-PET at 30 and 90 minutes, i.v. approx. 200 μCi per mouse, not seen in normal mice", "experimental": "FIG. 5A illustrates μ-PET images of mice injected with the ^68Ga-labeled peptide of FIG. 4. […] Arrows indicate accumulated imaging agent.\nMice weighing approximately 20 g each were injected intravenously with the imaging agent of FIG. 4 to provide radioisotope at a level of approximately 200 μCi per mouse. μ-PET imaging was performed at 30 and 90 minutes after injection. Control mice had no fungal infection, while infected mice had acute pulmonary aspergillosis. μ-PET images of normal and infected mice are shown in FIG. 5A. Arrows in FIG. 5A indicate the accumulated radiotracer."}, "[2]": {"system": "acute pulmonary aspergillosis", "settings": "i.v. approx. 80 μCi per mouse", "experimental": "FIG. 2 illustrates gamma scintography of mice injected with the ^111In-labeled peptide of FIG. 1. […] Arrows indicate radiotracer in the lung.\nGamma scintography was performed at 30 and 120 minutes after injection. […] Experiments were performed 1 to 2 days after infection. The same mouse is shown for each test type at 30 and 120 minutes. Arrows in FIG. 2 indicate the accumulated radiotracer. Radiotracer accumulation in the lungs of the control mouse was not visible at 120 minutes after injection. Increased radiotracer could be seen as little as 5 minutes after injection."}},
  "note": "Positions of bridges follow the written chain, without caps; N, C: chain ends. No end group written: not given here. *: point of attachment. DOTA = O=C(O)CN1CCN(CC(=O)O)CCN(CC(=O)*)CCN(CC(=O)O)CC1",
  "data": [
    {"substance": "c(CGGRLGPFC) (disulfide 1-9 (inferred))", "values": [
      {"measurement": "binding in vitro to the hyphae of Aspergillus", "setting": "hyphae of Aspergillus", "value": "bind in vitro"},
      {"measurement": "binding in vitro to the hyphae of Rhizopus", "setting": "hyphae of Rhizopus", "value": "bind in vitro"}
    ]},
    {"substance": "c(CWGHSRDEC) (disulfide 1-9 (inferred))", "values": [
      {"measurement": "binding in vitro to the hyphae of Aspergillus", "setting": "hyphae of Aspergillus", "value": "bind in vitro"},
      {"measurement": "binding in vitro to the hyphae of Rhizopus", "setting": "hyphae of Rhizopus", "value": "bind in vitro"}
    ]},
    {"substance": "^68Ga-DOTA-CGGRLGPFC ({DOTA}-CGGRLGPFC; not fully specified (bridges); also: 68Ga chelated by DOTA, cyclic, type of ring bond not given here) [imaging agent of FIG. 4]", "values": [
      {"measurement": "radioactivity in lung slices of the infected mouse", "setting": "Aspergillus; autoradiography of 20 μm slices, lungs removed after the 90 minute imaging session, infected mouse", "value": "Heterogeneous distribution of radioactivity"},
      {"measurement": "radioactivity in lung slices of the normal mouse", "setting": "Aspergillus; autoradiography of 20 μm slices, lungs removed after the 90 minute imaging session, normal mouse", "value": "Little radioactivity"},
      {"measurement": "relation of GMS-stained Aspergillus organisms to distribution of radioactivity in autoradiography", "setting": "Aspergillus; excised lung tissue of an infected mouse, FIG. 6", "value": "correlated"},
      {"measurement": "radiotracer accumulation in the lungs of infected mice", "setting": "[1]", "value": "can be clearly seen"}
    ]},
    {"substance": "^111In-DTPA-Benzyl-NH-Succinic Acid-CGGRLGPFC [imaging agent of FIG. 1]", "values": [
      {"measurement": "radiotracer accumulation in the lungs of the control mouse", "setting": "[2]; control mouse without fungal infection, 120 minutes after injection", "value": "not visible"},
      {"measurement": "time after injection at which increased radiotracer could be seen", "setting": "[2]; gamma scintography", "value": 5, "unit": "min"}
    ]}
  ]
}
